Results: US7012061B1 (New York University, priority 1998, dated 2006)
“And” between values parts separate entries of the source, which are not always exact repeats. Identical values can stand only once. Like-named read-outs stand apart in the source and are kept apart here.

B1: IFN-γ: Recombinant mouse IFN-γ purchased from Genzyme (protein, UniProt P01580 23-155, looked up)
Interferon gamma: HGTVIESLESLNNYFNSSGIDVEEKSLFLDIWRNWQKDGDMKILQSQIISFYLRLFEVLKDNQAISNNISVIESHLITTFFSNSKAKKDAFMSIAKFEVNNPQVQRQAFNELIRVVHQLLPESSLRKRKRSRC

Assays:
aortic endothelial cells = details: Clark et al, 1988; cited from earlier work
VSV [1] = format: cell-based, Vesicular stomatitis virus; details: for VSV in supernatant: NB41A3, 8 h pi; for Effect on IFN-γ-induced inhibition of VSV replication: NB41A3 cells
Influenza virus A/WSN/33 = format: cell-based
Sindbis AR339 virus = format: cell-based
HSV-1 = format: cell-based, Herpes Simplex virus-1
VSV [2] = format: cell-based, Vesicular stomatitis virus; details: RAW, inhibitors, moi = 1, 8 h pi
VSV [3] = format: cell-based, Vesicular stomatitis virus; details: C6 Glia, moi = 1, 8 h pi
VSV [4] = format: in vivo, mice; details: BALB/c male mice
type I NOS = type I NOS (Homo sapiens, UniProt P29475); details: Moore et al, 1993; cited from earlier work
[5] = tested on: NOS activity in NB41A3 neuroblastoma cells; test: NO2 release into culture medium (Griess reagent), NB41A3 cells; format: cell-based
Experimental: (§1) FIGS. 2A–2C show the kinetics of the IFN-γ augmented NOS activity in NB41A3 neuroblastoma, C6 rat glioma and RAW cells. Aliquots of supernatant were removed from triplicate wells of 2×10^5 NB41A3 (FIG. 2A), RAW (FIG. 2B) or C6 (FIG. 2C) cells, cultured with medium or with 5 ng IFN-γ for up to 72 hours. The medium was assayed for the presence of NO2 using the Griess reagent, and expressed as nM NO2 ±S.D. present.
(§2) The concentration of NO in culture supernatants was determined by assaying its stable end-product, NO2 (Bredt et al, 1989). Briefly, equal volumes of experimental sample and Griess reagent (1% sulfanilamidide, 0.1% N-1-naphthylethylene-diamine, 5H3PO4) (Sigma) were incubated at room temperature for ten minutes. The reaction produces a pink color, which was quantitated at 540 nm against standards in the same buffer, using an automated plate reader (Bio-Tek, Inc., model EL309). The data is expressed as mM.

[6] = tested on: NOS activity in RAW cells; test: NO2 release into culture medium (Griess reagent), RAW cells; format: cell-based, murine; details: RAW macrophage line, incubation with 5 ng rIFNγ
Experimental: as §1, §2

[7] = tested on: NOS activity in C6 rat glioma cells; test: NO2 release into culture medium (Griess reagent), C6 cells; format: cell-based; details: astrocytes (C6), co-culture with IFN-γ
Experimental: as §1, §2

[8] = 5 μg IFN-γ for 72 hours prior to infection, inhibitors 400 mM, 8 hour infection, moi = 1
[9] = Media (no IFN-γ), inhibitors 400 mM, 8 hour infection, moi = 1
[10] = IFN-γ 5 ng for 72 hours, inhibitors 400 mM, moi = 1
[11] = Medium, inhibitors 400 mM, moi = 1
[12] = NMDA 500 mM for two minutes, inhibitors 400 mM, moi = 1
[13] = IFN-γ 5 ng for 72 hours, inhibitors 400 mM

Chain of type I NOS (P29475 whole entry): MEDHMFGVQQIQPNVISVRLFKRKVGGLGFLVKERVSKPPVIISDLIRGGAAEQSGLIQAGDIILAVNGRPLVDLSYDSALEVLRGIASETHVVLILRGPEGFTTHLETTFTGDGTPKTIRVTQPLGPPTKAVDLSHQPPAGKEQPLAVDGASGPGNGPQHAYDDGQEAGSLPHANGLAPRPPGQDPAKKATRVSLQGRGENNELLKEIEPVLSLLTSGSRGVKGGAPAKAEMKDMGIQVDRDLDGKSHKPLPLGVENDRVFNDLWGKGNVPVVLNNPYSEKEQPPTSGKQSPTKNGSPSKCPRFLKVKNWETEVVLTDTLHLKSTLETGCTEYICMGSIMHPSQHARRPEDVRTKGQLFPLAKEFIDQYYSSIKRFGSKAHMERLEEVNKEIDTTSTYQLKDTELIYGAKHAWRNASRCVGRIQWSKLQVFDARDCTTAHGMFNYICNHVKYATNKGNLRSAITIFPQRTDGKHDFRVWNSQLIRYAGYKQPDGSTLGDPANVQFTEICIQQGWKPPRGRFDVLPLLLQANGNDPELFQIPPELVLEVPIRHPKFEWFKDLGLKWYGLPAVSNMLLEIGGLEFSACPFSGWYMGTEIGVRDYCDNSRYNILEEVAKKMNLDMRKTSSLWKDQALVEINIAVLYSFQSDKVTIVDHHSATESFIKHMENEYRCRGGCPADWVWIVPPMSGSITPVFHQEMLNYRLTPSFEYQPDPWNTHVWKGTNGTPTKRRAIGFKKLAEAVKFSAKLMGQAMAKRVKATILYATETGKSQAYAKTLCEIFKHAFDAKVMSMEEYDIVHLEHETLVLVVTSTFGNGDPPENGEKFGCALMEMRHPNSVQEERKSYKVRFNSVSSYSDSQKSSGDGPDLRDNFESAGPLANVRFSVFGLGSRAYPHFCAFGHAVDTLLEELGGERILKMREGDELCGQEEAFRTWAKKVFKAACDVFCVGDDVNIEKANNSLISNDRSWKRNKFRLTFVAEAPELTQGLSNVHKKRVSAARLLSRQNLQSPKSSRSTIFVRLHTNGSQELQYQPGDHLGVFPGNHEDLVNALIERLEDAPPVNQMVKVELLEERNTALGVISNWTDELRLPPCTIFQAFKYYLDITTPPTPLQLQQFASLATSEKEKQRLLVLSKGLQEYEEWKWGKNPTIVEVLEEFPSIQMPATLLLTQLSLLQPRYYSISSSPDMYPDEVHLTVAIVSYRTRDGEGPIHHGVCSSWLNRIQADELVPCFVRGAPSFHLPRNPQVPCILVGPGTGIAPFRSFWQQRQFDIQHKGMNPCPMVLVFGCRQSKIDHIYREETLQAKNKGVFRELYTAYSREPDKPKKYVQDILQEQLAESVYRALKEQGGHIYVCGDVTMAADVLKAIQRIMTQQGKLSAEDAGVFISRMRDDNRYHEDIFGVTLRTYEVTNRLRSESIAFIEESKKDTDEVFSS

Row | Molecule | VSV infectious virus in supernatant (VSV [1]; [8]) | VSV infectious virus in supernatant (VSV [1]; [9]) | VSV in supernatant (VSV [1]; [10]) | VSV in supernatant (VSV [1]; [11]) | VSV in supernatant (VSV [1]; [12]) | Influenza infectious virus in supernatant (Influenza virus A/WSN/33; [8]) | Influenza infectious virus in supernatant (Influenza virus A/WSN/33; [9]) | Sindbis infectious virus in supernatant (Sindbis AR339 virus) | HSV-1 infectious virus in supernatant (HSV-1) | VSV in supernatant (VSV [2]; IFN-γ 5 ng for 72 hours) | VSV in supernatant (VSV [2]; Medium) | VSV in supernatant (VSV [3]; [13]) | VSV in supernatant (VSV [3]; Medium, inhibitors 400 mM) | VSV in supernatant (VSV [3]) | Effect on IFN-γ-induced inhibition of VSV replication (VSV [1]) | Effect on IFN-γ-induced inhibition of HSV-1 replication (HSV-1) | further results
1 | NC1=NN(c2cccc(C(F)(F)F)c2)CC1 [BW 755c] | – | – | – | – | – | – | – | – | – | – | – | – | – | – | – | – | TNF-induced injury to aortic endothelial cells (aortic endothelial cells): reduced
2 | c1ccc2[nH]ncc2c1 [Indazole, indazole] | 3.678 ± .174 Log10 PFU | 5.460 ± .408 Log10 PFU | 4.23 ± .29 log10 PFU | 5.58 ± .27 log10 PFU | 4.39 ± .36 log10 PFU | 3.546 ± .212 Log10 PFU | 5.268 ± .350 Log10 PFU | 5.053 ± .217 Log10 PFU and 3.752 ± .046 Log10 PFU | 5.140 ± .204 Log10 PFU and 3.175 ± .369 Log10 PFU | 4.49 ± .48 log10 PFU | 5.45 ± .21 log10 PFU | 4.48 ± .42 log10 PFU | 5.63 ± .19 log10 PFU | 4.48 ± .17 log10 PFU | – | – | –
3 | CN[C@@H](CCCNC(=N)N)C(=O)O [L-NMA, L-N-Methyl Arginine] | 5.761 ± .151 Log10 PFU | 5.948 ± .089 Log10 PFU | 5.77 ± .21 log10 PFU | 5.76 ± .25 log10 PFU | 5.59 ± .27 log10 PFU | 3.767 ± .208 Log10 PFU | 5.810 ± .131 Log10 PFU | 5.033 ± .238 Log10 PFU and 3.796 ± .084 Log10 PFU | 5.359 ± .225 Log10 PFU and 5.227 ± .208 Log10 PFU | 5.71 ± .09 log10 PFU | 5.83 ± .13 log10 PFU | 5.59 ± .26 log10 PFU | 5.85 ± .08 log10 PFU | 5.38 ± .37 log10 PFU | abrogation | abrogation | –
4 | CN[C@H](CC(=O)O)C(=O)O [NMDA] | – | – | – | – | 3.71 ± .20 log10 PFU | – | – | – | – | – | – | – | – | 5.54 ± .24 log10 PFU | – | – | –
5 | O=[N+]([O-])c1cccc2cn[nH]c12 [7-NI, 7-nitroindazole] | 5.752 ± .331 Log10 PFU | 5.985 ± .428 Log10 PFU | 5.76 ± .10 log10 PFU | 5.76 ± .18 log10 PFU | 5.57 ± .15 log10 PFU | 3.897 ± .089 Log10 PFU | 5.560 ± .489 Log10 PFU | 4.935 ± .056 Log10 PFU and 3.897 ± .089 Log10 PFU | 5.159 ± .194 Log10 PFU and 5.170 ± .264 Log10 PFU | 4.84 ± .15 log10 PFU | 5.87 ± .08 log10 PFU | 4.54 ± .14 log10 PFU | 5.83 ± .14 log10 PFU | 4.59 ± .52 log10 PFU | abrogation | abrogation | Effect on IL-12-mediated enhanced clearance of VSV (VSV [4]; 50 mg/kg with 200 ng IL-12, four days post infection): abrogated; Geometric mean titer (GMT) of virus in brain homogenates compared to indazole-treated mice (VSV [4]; 50 mg/kg, four days post infection): ten-fold greater GMT; NOS isoform selectivity (type I NOS): selective inhibitor of type I, but not types II or III NOS
6 | B1 | – | – | – | – | – | – | – | 3.318 ± .373 Log10 PFU | 3.467 ± .408 Log10 PFU | – | – | – | – | – | – | – | VSV infectious virus in supernatant (VSV [1]): 3.752 ± .034 Log10 PFU; VSV replication in NB41A3 cells (VSV [1]): significantly inhibited; Influenza infectious virus in supernatant (Influenza virus A/WSN/33): 3.810 ± .130 Log10 PFU; Replication of influenza virus A/WSN/33 in NB41A3 cells (Influenza virus A/WSN/33): significantly inhibited; Replication of Sindbis virus in NB41A3 cells (Sindbis AR339 virus): significantly inhibited; HSV-1 replication in NB41A3 cells (HSV-1): significantly inhibited; NO production by NB41A3 cells ([5]; IFN-γ treatment): significantly increased; Time to substantial levels of NO2 production ([5]; Neuroblastoma cells, co-culture with IFN-γ): 72 h; Time to plateau levels of NO2 production [6]: ≤ 24 h; Time to substantial levels of NO2 production [7]: 72 h
